Consider 4 compounds from patent publication US6911550B2, “Derivatives of seleno-amino acids with improved bioavailability and method for their preparation” (priority 2003, dated 2005).

Counter-ions that a name gives are not always drawn.

Data set [1] is described as follows: Plasma selenium concentration in broilers. Particulars: both, chicken (broilers), in vivo, 49 days. The method, then:
(§1) One day old male and female birds were used in the study. Male and females were housed separately and randomly assigned to 6 blocks of 8 pens each (4 females and 4 males). The pens contained 50 females or 45 males. Two extra birds were added to each pen at the start of the experiment to allow for mortality and culls. On day 7 the number of birds in each per were adjusted to 50 females and 45 males. Three treatments were assigned to pens using a complete randomized block design. The treatments included: 1) negative control (no additional selenium), 2) sodium selenite, and 3) zinc L-selenomethionine. Birds were housed in concrete floor pens of an environmentally controlled facility. Environmental conditions were similar for all birds in all experimental groups. […] All feed added and removed from pens from day 0 to the end of the study was weighed and recorded. […] The feed intake for each pen was determined by subtracting the amount of feed remaining in the feeder at the end of the study period from the amount of feed weighed into the pen. Average bird weight was calculated on a pen basis. […] Blood was collected in heparinized tubes, plasma was separated and stored at −20° C. until analyzed for selenium and glutathione peroxidase. […] A 100 g sample of the right breast was collected from each bird and stored at −20° C. until analyzed for selenium.

In data set [2] the test system is glutathione peroxidase. Put plainly: Plasma glutathione peroxidase activity in broilers. The data set is classed as in vivo. Particulars: day 49. The protocol:
as §1

Data set [3] in a line: Tissue selenium concentrations in grow-finish pigs. The data set is classed as in vivo. An excerpt: (§2) Sixteen pigs with an average weight of 22.9 kg were stratified by weight within sex and randomly assigned to treatments consisting of 0.3 ppm supplemental selenium from either sodium selenite or zinc L-selenomethionine hydrochloride. Pigs were housed in pens and each treatment consisted of four replicate pens each housed one gilt and one […]. Pigs were fed diets that were formulated to meet NRC requirements. Pigs were fed the growing diet for 56 days and then the finishing diet for 33 days. The average pig weight at the end of the growing and finishing phases was 69.6 and 101.2 kg, respectively. Body weights of each pig were determined initially and at the end of the growing and finishing phases. At the end of the study, pigs were slaughtered and samples of liver, muscle, heart and kidney were collected for selenium determination.

Data set [4] in a line: Performance of grow-finish pigs fed selenium sources. As to conditions: for Feed Intake / Feed/Gain / Gain: 0.3 ppm supplemental selenium. In kind it is in vivo.
Source text: as §2

Data set [5] can be described thus: Rumen degradation after ingestion. As to conditions: in vivo.
A short description of data set [6]: Plasma and tissue selenium concentrations in selenium-depleted lambs fed selenium sources. In kind it is in vivo. As to conditions: for Relative bioavailability based on tissue selenium concentration, Heart / Relative bioavailability based on tissue selenium concentration, Kidney / Relative bioavailability based on tissue selenium concentration, Liver / Relative bioavailability based on tissue selenium concentration, Muscle: sheep, po, 56 days. From the text:
(§3) […] lambs with average weight of 18.5 kg were used. […] Lambs were weaned at approximately two months of age and placed in plastic pens with plastic feeders and stainless steel waterers. For 56 days lambs were fed feedstuff low in selenium. Jugular blood samples were obtained from all lambs on days 0, 28 and 56. At the end of the 56-day depletion period, lambs were stratified by weight and randomly assigned to […]. The treatments consisted of: 1) Control, 2) sodium selenite, 3) L-selenomethionine and 4) zinc L-selenomethionine. The selenium sources were added to provide 0.05 ppm of supplemental selenium for 28 days and then the amount of selenium from each source was increased to 0.1 ppm for additional 28 days. Blood samples were collected via jugular puncture on days 0, 14, 28 and 56. Whole blood and plasma glutathione peroxidase activity in samples obtained on days 0, 14, 28, and 56. Plasma selenium was measured in samples obtained on days 0, 28, and 56. Six lambs from each treatment were slaughtered at the end of the study and samples of liver, kidney, muscle, and heart were obtained for the determination of selenium and glutathione peroxidase activities.

For data set [7], the system named is glutathione peroxidase. Nature of the data set: Glutathione peroxidase activity in selenium-depleted lambs fed selenium sources. Particulars: for Whole blood glutathione peroxidase activity, difference between selenium sources / Plasma glutathione peroxidase activity compared with sodium selenite / Glutathione peroxidase activities in kidney, liver, and muscle compared to sodium selenite: lambs; for Whole blood glutathione peroxidase activity, difference between selenium sources: day 14; for Plasma glutathione peroxidase activity compared with sodium selenite: day 28, 0.05 ppm Se; for Glutathione peroxidase activities in kidney, liver, and muscle compared to sodium selenite: supplemented for 56 days; for Relative bioavailability based on glutathione peroxidase activity, Plasma, day 14 / Relative bioavailability based on glutathione peroxidase activity, Plasma, day 28 / Relative bioavailability based on glutathione peroxidase activity, Heart / Relative bioavailability based on glutathione peroxidase activity, Kidney / Relative bioavailability based on glutathione peroxidase activity, Liver / Relative bioavailability based on glutathione peroxidase activity, Muscle: sheep, po; for Relative bioavailability based on glutathione peroxidase activity, Plasma, day 14: 14 days; for Relative bioavailability based on glutathione peroxidase activity, Plasma, day 28: 28 days; for Relative bioavailability based on glutathione peroxidase activity, Heart / Relative bioavailability based on glutathione peroxidase activity, Kidney / Relative bioavailability based on glutathione peroxidase activity, Liver / Relative bioavailability based on glutathione peroxidase activity, Muscle: 56 days. The data set is classed as in vivo.
Source text: as §3

A short description of data set [8]: Stability of a zinc L-selenomethionine solution on storage (HPLC). In kind it is physicochemical. The protocol:
FTIR Identification: A 100 μL of the extract was added to 100 mg of FTIR grade potassium bromide powder and mixed well. The mixer was dried in an oven at 75° C. A pellet was formed and the FTIR spectrum of the sample was recorded. […] (w, weak; m, medium; s, strong; vs, very strong). This spectrum is different than that of L-selenomethionine. Of interest is the absence of the weak to medium band at around 2118 cm^−1 characteristic of free amino acids. HPLC Determination: The concentration of zinc L-selenomethionine in the water extract was determined by HPLC. A Shimadzu instrument composed of SCL-10A-VP Controller, Dual LC-10AD-VP Pumps, SIL-10 Ai Auto sampler, and SCD-10AV-VP UV/Visible Detector set at 210 nm. A Discovery Cyano 5μ column (25 cm×4.6 mm) was used at 25° C. The mobile phase was a 0.1% Glacial acetic Acid at 1.00 mL/min. A 50 μL of the standard or sample solution was injected by the auto sampler. A set of 5 standards were prepared to contain 0.1567, 0.3134, 0.4701, 0.6268, and 0.7835 mg/ml of Zinc L-Selenomethionine. A 100 μL of the sample extract was diluted with 900 μL water and used as sample solution. Standards and sample solutions are filtered through a 2μ filter before injection. Standards and sample contained only a single component with a retention time of 3.975 min. Linear regression was used to construct a correlation graph of area under the peak vs. concentration. The concentration of zinc L-selenomethionine in the sample solution was calculated from the correlation graph and found to be 0.3898 mg/mL corresponding to 18.79% Zinc L-Selenomethionine or 5.67% Selenium in the original Premix.
About 2.0 g of a Zinc L-Selenomethionine Premix 5% Se was accurately weighed and transferred into a 100-ml volumetric flask. Water was added to volume. The flask was stoppered and its contents were mixed vigorously. The mixture was allowed to settle and a sample of the supernatant was removed carefully and filtered through a […]. The concentration of zinc L-selenomethionine in the filtrate was determined by HPLC as described in EXAMPLE 2. Analysis was conducted immediately after the solution was prepared and repeated at 30 days and 90 days after storing at an ambient temperature averaging 18° C. and 50% relative humidity.

A short description of data set [9]: Solubility in water. The data set is classed as physicochemical. The method, then: L-Selenomethionine (97.8 mg, 0.5 mmole) was added to water (45 ml) in a 250-ml round bottom flask placed in an ice-bath. The mixture was vigorously stirred by using a magnetic stirrer and a Teflon coated stir-bar. […] Zinc chloride (68.20 mg, 0.5 mmole) was added with continued stirring. A clear solution was immediately formed. The solution was concentrated to dryness at temperature 40° C. under reduced pressure. A hygroscopic colorless solid was formed.

With `C[Se]CC[C@@H]1[NH][Zn][O]C1=O` [Zn L-Selenomethionine, Zinc L-Selenomethionine Hydrochloride], the “Plasma Selenium Concentration” value in data set [1] stood at 0.177 ppm. Also, in [2], the “Glutathione Peroxidase Activity” value was 14.9. In addition, in data set [3] (pig, in vivo), the “Kidney selenium concentrations, sodium selenite versus zinc L-selenomethionine” value is listed as “similar”; the “Selenium concentrations in liver, muscle and heart compared with sodium selenite” value was “higher selenium concentrations”. Further, the “Gain/feed ratio compared with sodium selenite” value in data set [4] is listed as “higher”. In data set [4] (Finishing Phase (33 days)), the “Feed Intake” value was 2.22 kg, the Feed/Gain stood at 2.31 and the Gain turned out to be 0.96 kg/day. In data set [4] (Growing Phase (56 days)), the “Feed Intake” value is recorded as 1.86 kg, the Feed/Gain came out at 2.16 and the Gain came out at 0.86 kg/day. Further, in data set [4] (Total), the “Feed Intake” value was determined as 2.00 kg, the Feed/Gain was determined as 2.22 and the Gain is 0.90 kg/day. In [4] (finishing phase), the “Feed consumed compared with sodium selenite” value is “consumed less feed”. Besides, the “Rumen degradation after ingestion” value in [5] is recorded as “resistant to rumen degradation”. Also, in data set [6] (in vivo), the “Heart and liver selenium concentrations compared with sodium selenite” value is “higher heart and liver selenium concentrations”; the “Relative bioavailability based on tissue selenium concentration, Heart” value worked out at 158; the “Relative bioavailability based on tissue selenium concentration, Kidney” value is listed as 74; the “Relative bioavailability based on tissue selenium concentration, Liver” value came out at 160. The “Relative bioavailability based on tissue selenium concentration, Muscle” value in data set [6] (in vivo) is on record as 85. The “Plasma selenium compared with sodium selenite” value in data set [6] (lambs, day 56) is “higher plasma selenium”. In addition, in data set [7] (in vivo), the “Bioavailability compared with sodium selenite and L-selenomethionine” value is “more bioavailabe”; the “Relative bioavailability based on glutathione peroxidase activity, Plasma, day 14” value was found to be 145; the “Relative bioavailability based on glutathione peroxidase activity, Plasma, day 28” value was 149; the “Relative bioavailability based on glutathione peroxidase activity, Heart” value worked out at 126. In addition, in data set [7] (in vivo), the “Relative bioavailability based on glutathione peroxidase activity, Kidney” value is listed as 128; the “Relative bioavailability based on glutathione peroxidase activity, Liver” value turned out to be 152; the “Relative bioavailability based on glutathione peroxidase activity, Muscle” value stood at 200. In addition, in [7], the “Whole blood glutathione peroxidase activity, difference between selenium sources” value is “no difference”; the “Plasma glutathione peroxidase activity compared with sodium selenite” value was “higher”; the “Glutathione peroxidase activities in kidney, liver, and muscle compared to sodium selenite” value is recorded as “higher activities”. In addition, in data set [8], the “Stability of the water solution on storage” value is given as “stable on storage”. In addition, in data set [8] (after 30 days at ambient temperature averaging 18° C. and 50% relative humidity), the “Concentration of zinc L-selenomethionine in the solution” value is recorded as 18.89%. In addition, the “Concentration of zinc L-selenomethionine in the solution” value in [8] (after 90 days at ambient temperature averaging 18° C. and 50% relative humidity) is on record as 18.78%. For the same compound, in [8] (day of preparation, solution of Premix 5% Se in water), the “Concentration of zinc L-selenomethionine in the solution” value is listed as 18.95%. The “Change of concentration of zinc L-selenomethionine in the solution” value in data set [8] (thirty day storage at ambient temperature and humidity) is reported as “less than 0.5%”.

Turning to `C[Se]CC[C@H](N)C(=O)O` [L-Selenomethionine, reference compound], in data set [9], the Solubility in water entry is listed as “did not completely go into solution”. Also, in [6] (in vivo), the “Heart and liver selenium concentrations compared with sodium selenite” value is “higher heart and liver selenium concentrations”; the “Plasma selenium compared with sodium selenite” value is recorded as “higher plasma selenium”; the “Relative bioavailability based on tissue selenium concentration, Heart” value amounted to 139; the “Relative bioavailability based on tissue selenium concentration, Kidney” value is reported as 59. Also, in data set [6] (in vivo), the “Relative bioavailability based on tissue selenium concentration, Liver” value is listed as 206 and the “Relative bioavailability based on tissue selenium concentration, Muscle” value was 133. For the same compound, in [7], the “Whole blood glutathione peroxidase activity, difference between selenium sources” value was “no difference”; the “Plasma glutathione peroxidase activity compared with sodium selenite” value was “higher”; the “Glutathione peroxidase activities in kidney, liver, and muscle compared to sodium selenite” value was “higher activities”. For the same compound, in data set [7] (in vivo), the “Relative bioavailability based on glutathione peroxidase activity, Plasma, day 14” value was found to be 124; the “Relative bioavailability based on glutathione peroxidase activity, Plasma, day 28” value was found to be 138; the “Relative bioavailability based on glutathione peroxidase activity, Heart” value came to 107; the “Relative bioavailability based on glutathione peroxidase activity, Kidney” value is given as 100. Besides, in data set [7] (in vivo), the “Relative bioavailability based on glutathione peroxidase activity, Liver” value came out at 161 and the “Relative bioavailability based on glutathione peroxidase activity, Muscle” value worked out at 186.

As for `C[Se]C[C@H](N)C(=O)O.Cl.[Zn]` [zinc Se-methyl-L-selenocysteine complex, Zinc L-Se-Methylselenocysteine Hydrochloride], in data set [9], the Solubility in water entry was “readily soluble in water”. Also, the “Stability of the water solution on storage” value in data set [8] is “stable solution”.

Turning to `O=[Se](O)O` [Sodium Selenite, reference compound], the “Glutathione Peroxidase Activity” value in data set [2] amounted to 14.0. The “Kidney selenium concentrations, sodium selenite versus zinc L-selenomethionine” value in [3] (pigs) is “similar”. Besides, in data set [4] (Finishing Phase (33 days)), the “Feed Intake” value is 2.57 kg, the Feed/Gain stood at 2.71 and the Gain is 0.95 kg/day. Moreover, in [4] (Growing Phase (56 days)), the “Feed Intake” value is reported as 1.74 kg, the Feed/Gain is 2.15 and the Gain came to 0.81 kg/day. In addition, in data set [4] (Total), the “Feed Intake” value is 2.05 kg, the Feed/Gain turned out to be 2.38 and the Gain is 0.86 kg/day. Further, the “Plasma selenium concentration, difference between selenium sources” value in data set [6] (lambs, day 28) is “no difference”.
